Patent publication US20130217579A1, “Pesticide Preparations Containing N-Substituted 2-Pyrrolidone-4-Carboxylic Acid Esters” (CLARIANT FINANCE (BVI) LIMITED, priority 2010, published 2013)

Test: Solubilities of pesticides in compounds of formula (1)
Assay type: physicochemical
Experimental: The solubilities of various pesticides were determined in various compounds of formula (1) at 25° C. All data are in % by weight (Table 1).

CCCCOC(=O)C1CC(=O)N(C)C1 (centres unmarked) [Example 3, N-butyl N-methyl-2-pyrrolidone-4-carboxylate]
Solubility of Pendimethalin in compound of formula (1): 38.9 % by weight
Solubility of Tebuconazole in compound of formula (1): 37.0 % by weight
Solubility of Triadimefon in compound of formula (1): 43.0 % by weight
Solubility of Trifloxystrobin in compound of formula (1): 30.1 % by weight
Solubility of Trifluralin in compound of formula (1): 57.4 % by weight
